Data: patent US20110098359A1, “Compositions and Methods for Treatment of Glaucoma” (Stellenbosch University, priority 2007, published 2011)

Columns and labels:
[1] = Permeability experiments in flow-through diffusion cells across rabbit corneas; format: in vitro ADME; conditions: for steady-state flux values: frozen/thawed rabbit cornea, 20° C.
Excerpt: (§1) Harvested donor comeas, which were deemed unsuitable for transplantation because of infections such as hepatitis B and human immunodeficiency virus (HIV), were obtained from The Eye Bank Foundation of South Africa Observatory from 6 patients (mean age±SD, 35±12 years; range, 24-65 years). In addition, rabbit corneas were obtained from 6 freshly slaughtered rabbits (Country Lane Nursery Farm, Kraaifontein, Cape Town, South Africa). Excised corneas were immediately placed in McCarey-Kaufman solution and transported to a laboratory within 6 hours. The McCarey-Kaufman solution consisted of a stock solution of Medium 199 (Sigma Chemical Company, St. Louis, Mo., U.S.A.) to which sodium bicarbonate, as well as 25 mM of HEPES and 5% dextran, was added before using the solution for the transport of corneal specimens. On arrival in the laboratory, the corneas were hemisected. One half was used immediately, and the other half was snap-frozen in liquid nitrogen and stored at −85° C. for no longer than 6 months before use. At least one piece of corneal tissue from each specimen was placed in formalin and retained for histologic examination.
(§2) Before each permeability experiment, tissue specimens were thawed at room temperature in phosphate buffered saline (PBS, pH 7.4). […]
(§3) Following equilibration, the PBS was removed from the donor compartment and replaced with 1.0 mL of PBS, containing 1 mg/mL (0.1%) paracetamol in PBS at pH 7.4 (w/v) or else 1 mg/mL (0.1%) paracetamol in a commercially available artificial tear gel i.e. Teargel® liquid gel (Restan Laboratories, Bryanston, South Africa). […] Samples were analyzed at the Division of Pharmacology, Faculty of Health Sciences, Stellenbosch University by HPLC with UV detection. The collected fractions were analyzed directly after completion of the respective experiment for their paracetamol content.
(§4) Flux (J) values across membranes were calculated by means of the relationship
(§5) where Q indicates quantity of substance crossing membrane (in ng); A, membrane area exposed (in cm^2); and t, time of exposure (in minutes). […]

[2] = Corneal penetration experiments (general statement); format: in vitro ADME; conditions: more than 2000 corneal penetration experiments
Method: An ophthalmic solution was made up as follows: 1 mg/ml (0.1%) solution of paracetamol in phosphate buffered saline (pH=7.4) was used for half of the experiments and 1 mg/ml (0.1%) solution of paracetamol in phosphate […]. […] These tests were conducted in the following manner.

[3] = Initial trials: oral paracetamol in patients with glaucoma, intra-ocular pressure reduction; format: in vivo, human; conditions: 1000 mg orally 4 to 6 hourly, after 24 to 48 hours
Method: In initial trials, 1000 mg of paracetamol was administered orally 4 to 6 hourly to several patients with glaucoma. In all cases the intra-ocular pressure reduction was in the order of 30% after 24 to 48 hours. This compares well with the pressure lowering effect of currently available commercial preparations.

[4] = Permeability experiments in flow-through diffusion cells across human corneas; format: in vitro ADME; conditions: for steady-state flux values: frozen/thawed human cornea, 20° C.
Excerpt: as §1, §2, §3, §4, §5

[5] = 0.1% paracetamol in Teargel (TG)

## CC(=O)Nc1ccc(O)cc1 [paracetamol]
[1]; 0.1% paracetamol in PBS pH 7.4
  steady-state flux values: 774±30 ng·cm^−2·min^−1
[1]; [5]
  steady-state flux values: 860±39 ng·cm^−2·min^−1
[1]; across rabbit corneas, Teargel vs PBS, 0.1%
  effect of Teargel on the diffusion rate of paracetamol: increase the diffusion rate
[2]
  corneal penetration: does penetrate the cornea well
[3]
  intra-ocular pressure reduction: ~30%
[4]; 0.1% paracetamol in PBS pH 7.4
  steady-state flux values: 870±76 ng·cm^−2·min^−1
[4]; [5]
  steady-state flux values: 860±33 ng·cm^−2·min^−1
[4]; across human corneas, Teargel vs PBS, 0.1%
  effect of Teargel as a soluent on the diffusion rate of paracetamol: did not affect the diffusion rate
